Results published in US12338287B2, “Treatment of cancer using a CD33 chimeric antigen receptor” (Novartis AG, priority 2014, dated 2025).
Where two headings read alike, the source gives them in different places.

Experiments:
[1] = tested on: humanized CD19 CART cells; assay: In vivo proliferation of humanized CD19 CART cells with and without RAD001; conditions: 0.003 mg/kg daily with huCTL019; CD4+ and CD8+ CAR T cells
Description: FIGS. 57A and 57B show in vivo proliferation of humanized CD19 CART cells with and without RAD001 dosing. […] Circles denote PBS; squares denote huCTL019; triangles denote huCTL019 with 3 mg/kg RAD001; inverted triangles denote huCTL019 with 0.3 mg/kg RAD001; diamonds denote huCTL019 with 0.03 mg/kg RAD001; and circles denote huCTL019 with 0.003 mg/kg RAD001.

huCAR19 CAR T cells = assay: CAR T cell expansion in vivo with RAD001 (FACS); set-up: species or system NSG mice; conditions: lowest doses of RAD001, daily oral; FIG. 57
Description: CAR T cell dosing: Mice were administered 5×10^6 CAR T cells 7 days after tumor implantation. Cells were partially thawed in a 37 degree Celsius water bath and then completely thawed by the addition of 1 ml of cold sterile PBS to the tube containing the cells. The thawed cells were transferred to a 15 ml falcon tube and adjusted to a final volume of 10 mls with PBS. The cells were washed twice at 1000 rpm for 10 minutes each time and then counted on a hemocytometer. T cells were then resuspended at a concentration of 50×10^6 CAR T cells per ml of cold PBS and kept on ice until the mice were dosed. The mice were injected intravenously via the tail vein with 100 μl of the CAR T cells for a dose of 5×10^6 CAR T cells per mouse. Eight mice per group were treated either with 100 μl of PBS alone (PBS), or humanized CD19 CAR T cells.
(§1) RAD001 dosing: A concentrated micro-emulsion of 50 mg equal to 1 mg RAD001 was formulated and then resuspended in D5W (dextrose 5% in water) at the time of dosing. Mice were orally dosed daily (via oral gavage) with 200 μl of the desired doses of RAD001.
Based on these doses, huCAR19 CAR T cells were dosed with and without RAD001 to determine the proliferative ability of these cells. The highest dose used was 3 mg/kg based on the levels of RAD001 in the blood 24 hours after dosing. […] Mice were monitored via FACS for T cell expansion.

[2] = tested on: huCART19 cells co-cultured with Nalm-6; assay: Effect of RAD001 on CART proliferation, 4 day co-culture; format: cell-based, human
Description: To evaluate the functionality of CARTs, the T cells are thawed and counted, and viability is assessed by Cellometer. The number of CAR-positive cells in each culture is normalized using non-transduced T cells (UTD). The impact of RAD001 on CARTs was tested in titrations with RAD001, starting at 50 nM. The target cell line used in all co-culture experiments is Nalm-6, a human pre-B cell acute lymphoblastic leukemia (ALL) cell line expressing CD19 and transduced to express luciferase.
For measuring the proliferation of CARTs, T cells are cultured with target cells at a ratio of 1:1. The assay is run for 4 days, when cells are stained for CD3, CD4, CD8 and CAR expression. The number of T cells is assessed by flow cytometry using counting beads as reference.

[3] = tested on: CAR-expressing, transduced T cells; assay: CART proliferation in co-culture with Nalm-6 cells in presence of RAD001; format: cell-based; conditions: CARTs co-cultured with Nalm-6 cells, different concentrations of RAD001, 4 days
Description: CARTs were co-cultured with Nalm-6 cells in the presence of different concentrations of RAD001. The number of CAR-positive CD3-positive T cells (black) and total T cells (gray) was assessed after 4 days of co-culture.

[4] = RAD001 PK analysis in tumor bearing mice; format: in vivo, NSG mice; conditions: for concentration at 24 h: NSG, mouse, whole blood
Description: as §1
PK analysis: Mice were dosed daily with RAD001 starting 7 days post tumor implantation. Dosing groups were as follows: 0.3 mg/kg, 1 mg/kg, 3 mg/kg, and 10 mg/kg. Mice were bled on days 0 and 14 following the first and last dose of RAD001, at the following time points for PK analysis: 15 minutes, 30 minutes, 1 hour, 2 hours, 4 hours, 8 hours, 12 hours, and 24 hours.

NALM6-luc tumors = assay: RAD001 alone on NALM6-luc tumor growth; format: in vivo, NSG mice; conditions: daily oral dosing of RAD001 alone; FIG. 55
Description: NALM6-luc cells: The NALM6 human acute lymphoblastic leukemia (ALL) cell line was developed from the peripheral blood of a patient with relapsed ALL. The cells were then tagged with firefly luciferase. These suspension cells grow in RPMI supplemented with 10% heat inactivated fetal bovine serum.
Mice: 6 week old NSG (NOD.Cg-Prkdc^scidIl2rg^tmIWjl/SzJ) mice were received from the Jackson Laboratory (stock number 005557).
Tumor implantation: NALM6-luc cells were grown and expanded in vitro in RPMI supplemented with 10% heat inactivated fetal bovine serum. The cells were then transferred to a 15 ml conical tube and washed twice with cold sterile PBS. NALM6-luc cells were then counted and resuspended at a concentration of 10×10^6 cells per milliliter of PBS. The cells were placed on ice and immediately (within one hour) implanted in the mice. NALM6-luc cells were injected intravenously via the tail vein in a 100 μl volume, for a total of 1×10^6 cells per mouse.
as §1

protein L = assay: Protein L binding of scFv on JNL cells; conditions: data not shown
hsCD33 = hsCD33 (Homo sapiens, UniProt P20138); assay: Cell surface scFv on JNL cells detected with recombinant Fc-tagged hsCD33; format: binding; conditions: recombinant Fc-tagged hsCD33, PE secondary antibody; relative to GFP or CD19 scFv JNL cells
Sequence of hsCD33 (P20138 18-259 limits assumed): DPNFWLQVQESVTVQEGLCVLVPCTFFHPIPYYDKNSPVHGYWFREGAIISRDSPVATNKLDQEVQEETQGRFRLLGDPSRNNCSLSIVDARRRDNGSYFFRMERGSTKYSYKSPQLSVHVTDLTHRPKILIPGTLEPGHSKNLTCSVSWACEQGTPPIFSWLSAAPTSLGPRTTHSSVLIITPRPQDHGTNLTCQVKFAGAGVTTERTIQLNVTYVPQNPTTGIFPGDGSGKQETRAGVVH
Description: (§2) FIG. 27 is an image depicting the cell surface expression of scFvs on a Jurkat T cell line, which contains a luciferase reporter driven by an NFAT-regulated promoter (termed JNL cells). JNL cells were transduced with a lentiviral vector expressing a cDNA encoding GFP, a scFv that binds to CD19, or cDNAs that encode an scFv, which was raised against hsCD33. The cell surface expression of individual scFv's on JNLs was detected by incubating cells with recombinant Fc-tagged hsCD33 followed by incubation with an Fc-specific secondary antibody conjugated to phycoerythrin.
as §2, with “To depict the” for “FIG. 27 is an image depicting the”, “of scFv's” for “of scFvs”, “JNL cells),” for “JNL cells).”, “GFP, an” for “GFP, a”, “against hsCD33 (FIG. 27).” for “against hsCD33.”

[5] = molecular target: recombinant Fc-tagged hsCD33 (Homo sapiens, UniProt P20138); assay: scFv binding to recombinant CD33 by flow cytometry (JNL cells); conditions: scFv on JNL cells, Fc-tagged hsCD33, PE secondary; FIG. 32
Sequence of recombinant Fc-tagged hsCD33 (P20138 18-259 limits assumed): as above
Description: Finally, scFv cross-reactivity to cynomolgus CD33 (cyCD33) was assessed by flow cytometry as depicted in FIG. 32. JNL cells transduced with a lentiviral vector expressing scFv's raised against hsCD33 were incubated with either recombinant Fc-tagged hsCD33 (red line) or cyCD33 (blue line) followed by incubation with an Fc-specific secondary antibody conjugated to phycoerythrin.

MOLM13 = assay: NFAT-dependent luciferase reporter activation of JNL cells; format: cell-based; conditions: JNL cells co-cultured with MOLM13 relative to MOLP8 or GFP JNL cells; 24 hours
From the text: FIGS. 28A, 28B, 28C, and 28D are images showing the ability of individual scFv's targeting hsCD33 to elicit NFAT activity in JNL cells. JNL cells expressing scFv's against hsCD33 were co-cultured with MOLM13 or MOLP8 cell lines, which express hsCD33 or lack hsCD33 cell surface expression, respectively (FIG. 28A; hsCD33, solid green line; isotype control, gray dashed line and shaded area). FIG. 28B depicts the activation of JNL cells expressing an scFv targeting hsCD33 in the presence of MOLM13 (solid lines) or MOLP8 (dashed lines) cells. JNL cells expressing individual scFv's were plated at different effector (i.e. JNL cells) to target (i.e. MOLM13 or MOLP8) ratios and analyzed for the expression of relative luciferase units (RLUs) using the Bright-Glo™ Luciferase Assay on the EnVision instrument 24 hours post-incubation. FIG. 28C is a version of FIG. 28B, depicting the activation of JNL cells in the presence of MOLM13. […]
Individual scFv's targeting hsCD33 were evaluated for their ability to elicit NFAT activity in JNL cells (FIG. 28). […] JNL cells expressing individual scFv's were plated at different effector (i.e. JNL cells) to target (i.e. MOLM13 or MOLP8) ratios and analyzed for the expression of relative luciferase units (RLUs) using the Bright-Glo™ Luciferase Assay on the EnVision instrument 24 hours post-incubation.

In the case of CO[C@H]1C[C@@H]2CC[C@@H](C)[C@@](O)(O2)C(=O)C(=O)N2CCCC[C@H]2C(=O)O[C@H]([C@H](C)C[C@@H]2CC[C@@H](OCCO)[C@H](OC)C2)CC(=O)[C@H](C)/C=C(\C)[C@@H](O)[C@@H](OC)C(=O)[C@H](C)C[C@H](C)/C=C/C=C/C=C/1C [RAD001, (1R,9S,12S,15R,16E,18R,19R,21R,23 S,24E,26E,28E,30S,32S,35R)-1,18-dihydroxy-12-{(1R)-2-[(1 S,3R,4R)-4-(2-hydroxyethoxy)-3-methoxycyclohexyl]-1-methylethyl}-19,30-dimethoxy-15,17,21,23,29,35-hexamethyl-11,36-dioxa-4-aza-tricyclo[30.3.1.04,9]hexatriaconta-16,24,26,28-tetraene-2,3,10,14,20-pentaone], the “CAR T cell proliferation in vivo” value [1] is reported as “enhancement in CAR T cell proliferation, above the normal level of huCAR19 proliferation”, the “Proliferation of the CAR T cells in vivo” value (huCAR19 CAR T cells) is reported as “enhanced proliferation of the CAR T cells” and the “Proliferation of huCART19 cells” value ([2]; 0.0032 and 0.016 nM RAD001, 4 day co-culture with Nalm-6, FIG. 54) is reported as “proliferation was higher than observed without the addition of RAD001”. The “RAD001 concentration at which huCART19 cells expanded” value ([2]; 4 day co-culture with Nalm-6) was “less than 0.016 nM”, the “Proliferation of CAR-expressing, transduced T cells” value [3] was “enhanced by low doses of RAD001” and the concentration at 24 h ([4]; oral, 0.3 mg/kg, 24 hours after the final dose of RAD001, read-out: Concentration of RAD001) was over 10 nM. The concentration at 24 h ([4]; 24 hours after dosing, 0.3 mg/kg oral, day 0 and day 14, read-out: RAD001 concentrations in the blood) was over 10 nM, the “Stability in the blood” value ([4]; tumor bearing mice, FIGS. 56A, 56B) was “fairly stable in the blood” and the “Growth of NALM6-luc tumors” value (NALM6-luc tumors) was “did not have an impact on the growth of NALM6-luc tumors”.

B1: CD33-8: fully human anti-CD33 scFv CAR with 4-1BB and CD3zeta; full CAR SEQ ID NO: 55, scFv SEQ ID NO: 46 (protein)
chain: MALPVTALLLPLALLLHAARPQVQLVQSGAEVKKPGASVRVSCKASGYMFTDFFIHWVRQAPGQGLEWMGWINPNSGVTKYAQKFQGRVTMTRNTSISTAYMELSSLRSEDTAVYYCATWYSSGWYGIANIWGQGTMVTVSSASGGGGSGGGGSGGGGSDIQLTQSPSSLSASVGDRVTITCQASHDISNYLHWYQQKPGKAPKLLIYDASNLETGVPSRFTGSGSGTDFTLTIRSLQPEDVAAYYCQQSDDLPHTFGQGTKVDIKTTTPAPRPPTPAPTIASQPLSLRPEACRPAAGGAVHTRGLDFACDIYIWAPLAGTCGVLLLSLVITLYCKRGRKKLLYIFKQPFMRPVQTTQEEDGCSCRFPEEEEGGCELRVKFSRSADAPAYKQGQNQLYNELNLGRREEYDVLDKRRGRDPEMGGKPRRKNPQEGLYNELQKDKMAEAYSEIGMKGERRRGKGHDGLYQGLSTATKDTYDALHMQALPPR
With B1 the “Binding to protein L” value (protein L) was “lacked appreciable binding to either hsCD33 or protein L” and the “Binding to hsCD33 (cell surface scFv on JNL cells)” value (hsCD33) was “lacked appreciable binding to either hsCD33 or protein L”.

B2: CD33-UPenn: an scFv based on the sequence of Mylotarg, a monoclonal antibody that binds to the human CD33 antigen (protein)
chain: EIVLTQSPGSLAVSPGERVTMSCKSSQSVFFSSSQKNYLAWYQQIPGQSPRLLIYWASTRESGVPDRFTGSGSGTDFTLTISSVQPEDLAIYYCHQYLSSRTFGQGTKLEIKRGGGGSGGGGSSGGGSQVQLQQPGAEVVKPGASVKMSCKASGYTFTSYYIHWIKQTPGQGLEWVGVIYPGNDDISYNQKFQGKATLTADKSSTTAYMQLSSLTSEDSAVYYCAREVRLRYFDVWGQGTTVTVSS
modifications: left off: small tags and cut ends
With B2 the “Binding of hsCD33” value [5] was “capable of binding hsCD33” and the “NFAT-dependent luciferase activity (RLUs)” value (MOLM13) was “capable of triggering NFAT-dependent luciferase activity”.
